Active and inactive are the calls of the source. No cut-off for these calls is given here.
Columns and labels:
Format in all cases: functional, cell-based
NB-4 = assay: Cytotoxicity against human NB-4 cells measured after 8 days; conditions: NB-4, 192 h
BT-474 = assay: Antiproliferative activity against human BT-474 cells assessed as reduction in colony formation up to 20 uM supplemented with fresh medium containing compound every 3 days for 9 days by MTT staining based clonogenic assay; conditions: time 9.0 day
Kasumi 1 = assay: Cytotoxicity against human Kasumi 1 cells measured after 8 days; conditions: Kasumi 1, 192 h
MCF7 = assay: Antiproliferative activity against human MCF7 cells assessed as reduction in colony formation up to 20 uM supplemented with fresh medium containing compound every 3 days for 9 days by MTT staining based clonogenic assay; conditions: time 9.0 day
Toledo = assay: Cytotoxicity against human Toledo cells measured after 8 days; conditions: 192 h
A549 = assay: Antiproliferative activity against human A549 cells assessed as reduction in colony formation up to 20 uM supplemented with fresh medium containing compound every 3 days for 9 days by MTT staining based clonogenic assay; conditions: time 9.0 day
HEL = assay: Cytotoxicity against human HEL cells measured after 3 days; conditions: 72 h
[1] = Cytotoxicity against human NCE-G 111 cells measured after 3 days; conditions: NCE-G 111, 72 h
[2] = Cytotoxicity against human LS174T-HM7 cells measured after 3 days; conditions: LS174T-HM7, 72 h
MDA-MB-453 = assay: Cytotoxicity against human MDA-MB-453 cells measured after 3 days; conditions: MDA-MB-453, 72 h
BT-20 = assay: Cytotoxicity against human BT-20 cells measured after 3 days; conditions: BT-20, 72 h
RL = assay: Cytotoxicity against human RL cells measured after 3 days; conditions: 72 h
PC-9 = assay: Antiproliferative activity against human PC-9 cells assessed as reduction in colony formation at 1 uM supplemented with fresh medium containing compound every 3 days by MTT staining based assay; conditions: time 9.0 day
[3] = Cytotoxicity against human KHM-1B cells measured after 3 days; conditions: 72 h
Hep 3B2 = assay: Cytotoxicity against human Hep 3B2.1-7 cells measured after 3 days; conditions: Hep3B, 72 h
MHH-PREB-1 = assay: Cytotoxicity against human MHH-PREB-1 cells measured after 3 days; conditions: MHH-PREB-1, 72 h
CWR22R = assay: Cytotoxicity against human 22Rv1 cells after 8 days; conditions: 22Rv1, 192 h
PA-1 = assay: Cytotoxicity against human PA-1 cells measured after 3 days; conditions: PA-1, 72 h
EFO-27 = assay: Cytotoxicity against human EFO-27 cells measured after 3 days; conditions: EFO-27, 72 h
SU-DHL10 = assay: Cytotoxicity against human SU-DHL-10 cells measured after 3 days; conditions: SU-DHL10, 72 h
[4] = Cytotoxicity against human RKOE6 cells measured after 3 days; conditions: RKOE6, 72 h
[5] = Cytotoxicity against human KPL-4 cells measured after 3 days; conditions: KPL4, 72 h
DB = assay: Cytotoxicity against human DB cells measured after 3 days; conditions: 72 h
Calu-1 = assay: Cytotoxicity against human Calu-1 cells after 8 days; conditions: Calu-1, 192 h
NAMALVA = assay: Cytotoxicity against human NAMALVA cells measured after 3 days; conditions: 72 h
DOHH-2 = assay: Cytotoxicity against human DOHH-2 cells measured after 3 days; conditions: DOHH-2, 72 h
TOV21G = assay: Cytotoxicity against human TOV-21G cells measured after 3 days; conditions: 72 h
OCI-AML2 = assay: Cytotoxicity against human OCI-AML2 cells measured after 3 days; conditions: OCI-AML2, 72 h
[6] = Cytotoxicity against human HNT-34 cells measured after 3 days; conditions: HNT-34, 72 h
Raji = assay: Cytotoxicity against human Raji cells measured after 3 days; conditions: 72 h
Huh-7 = assay: Cytotoxicity against human Huh-7 cells measured after 3 days; conditions: Huh-7, 72 h
OVCAR-8 = assay: Cytotoxicity against human OVCAR-8 cells measured after 3 days; conditions: OVCAR-8, 72 h
PC-3 = assay: Cytotoxicity against human PC-3 cells measured after 3 days; conditions: PC-3, 72 h
[7] = Cytotoxicity against human VP267 cells measured after 3 days; conditions: VP267, 72 h
JIYOYE = assay: Cytotoxicity against human JIYOYE cells measured after 3 days; conditions: 72 h
HCC70 = assay: Cytotoxicity against human HCC70 cells measured after 3 days; conditions: HCC70, 72 h
EJM = assay: Cytotoxicity against human EJM cells measured after 3 days; conditions: 72 h
[8] = Cytotoxicity against human KMM-1 cells measured after 3 days; conditions: KMM-1, 72 h
[9] = Cytotoxicity against human HCC1428 cells measured after 3 days; conditions: HCC1428, 72 h
[10] = Cytotoxicity against human NCE-G 61 cells measured after 3 days; conditions: NCE-G 61, 72 h
HCC1954 = assay: Antiproliferative activity against human HCC1954 cells assessed as reduction in colony formation at 1 uM supplemented with fresh medium containing compound every 3 days by MTT staining based assay; conditions: time 9.0 day
[11] = Cytotoxicity against human OVISE cells measured after 3 days; conditions: 72 h
SK-BR-3 = assay: Cytotoxicity against human SK-BR-3 cells measured after 3 days; conditions: SK-BR-3, 72 h
[12] = Cytotoxicity against human KMS-27 cells measured after 3 days; conditions: KMS-27, 72 h
[13] = Cytotoxicity against human CoCM-1 cells measured after 3 days; conditions: CoCM-1, 72 h
OCI-AML-5 = assay: Cytotoxicity against human OCI-AML5 cells measured after 3 days; conditions: OCI-AML-5, 72 h
[14] = Cytotoxicity against human Karpas-620 cells measured after 3 days; conditions: Karpas-620, 72 h
SNU-475 = assay: Cytotoxicity against human SNU-475 cells measured after 3 days; conditions: SNU-475, 72 h
KU812 cell line = assay: Cytotoxicity against human KU812 cell line measured after 3 days; conditions: KU812, 72 h
[15] = Cytotoxicity against human NCE-G 121 cells measured after 3 days; conditions: NCE-G 121, 72 h
[16] = Cytotoxicity against human VP229 cells measured after 3 days; conditions: VP229, 72 h
AMO1 = assay: Cytotoxicity against human AMO1 cells measured after 3 days; conditions: AMO1, 72 h
[17] = Cytotoxicity against human Hs 839.T cells measured after 3 days; conditions: 72 h
SU-DHL-16 = assay: Cytotoxicity against human SU-DHL-16 cells measured after 3 days; conditions: SU-DHL-16, 72 h
[18] = Cytotoxicity against human COV504 cells measured after 3 days; conditions: COV504, 72 h

C/C=C/Cn1cc(-c2ccc(C(C)(C)O)cc2OC)c2cc[nH]c2c1=O
IC50 (NB-4): 20 µM | Activity (BT-474): inactive | IC50 (Kasumi 1): 3.63 µM | Activity (MCF7): inactive | IC50 (Toledo): 20 µM | Activity (A549): inactive

C/C=C/Cn1cc(-c2cc(OC)c(C(=O)N3CCOCC3)cc2OC)c2cc(C)[nH]c2c1=O
IC50 (HEL): 5 µM | IC50 [1]: 5 µM | IC50 [2]: 5 µM | IC50 (MDA-MB-453): 5 µM | IC50 (BT-20): 5 µM | IC50 (RL): 5 µM | Activity (PC-9): inactive | IC50 [3]: 5 µM | IC50 (Hep 3B2): 5 µM | IC50 (MHH-PREB-1): 5 µM | IC50 (CWR22R): 2 µM | IC50 (PA-1): 5 µM | IC50 (EFO-27): 5 µM | IC50 (SU-DHL10): 5 µM | IC50 [4]: 5 µM | IC50 [5]: 5 µM | IC50 (DB): 5 µM | IC50 (Calu-1): 2 µM | IC50 (NAMALVA): 5 µM | IC50 (DOHH-2): 5 µM | IC50 (TOV21G): 5 µM | IC50 (OCI-AML2): 5 µM | IC50 [6]: 5 µM | IC50 (Raji): 5 µM | IC50 (Huh-7): 5 µM | IC50 (OVCAR-8): 5 µM | IC50 (PC-3): 5 µM | IC50 [7]: 5 µM | IC50 (JIYOYE): 5 µM | IC50 (HCC70): 5 µM | IC50 (EJM): 5 µM | IC50 [8]: 5 µM | IC50 [9]: 5 µM | IC50 [10]: 5 µM | Activity (HCC1954): inactive | IC50 [11]: 5 µM | IC50 (SK-BR-3): 5 µM | IC50 [12]: 5 µM | IC50 [13]: 5 µM | IC50 (OCI-AML-5): 5 µM | IC50 [14]: 5 µM | IC50 (SNU-475): 5 µM | IC50 (KU812 cell line): 5 µM | IC50 [15]: 5 µM | IC50 [16]: 5 µM | IC50 (AMO1): 5 µM | IC50 [17]: 5 µM | IC50 (SU-DHL-16): 5 µM | IC50 [18]: 5 µM
